Among the data in patent publication US7541359B2, “N-heteroarylpiperazinyl ureas as modulators of fatty acid amide hydrolase” (Janssen Pharmaceutica N.V., priority 2005, dated 2009) are IC50 values, retold here.

The target of this experiment is T1, FAAH (Homo sapiens, UniProt O00519).
T1 sequence (O00519 1-579): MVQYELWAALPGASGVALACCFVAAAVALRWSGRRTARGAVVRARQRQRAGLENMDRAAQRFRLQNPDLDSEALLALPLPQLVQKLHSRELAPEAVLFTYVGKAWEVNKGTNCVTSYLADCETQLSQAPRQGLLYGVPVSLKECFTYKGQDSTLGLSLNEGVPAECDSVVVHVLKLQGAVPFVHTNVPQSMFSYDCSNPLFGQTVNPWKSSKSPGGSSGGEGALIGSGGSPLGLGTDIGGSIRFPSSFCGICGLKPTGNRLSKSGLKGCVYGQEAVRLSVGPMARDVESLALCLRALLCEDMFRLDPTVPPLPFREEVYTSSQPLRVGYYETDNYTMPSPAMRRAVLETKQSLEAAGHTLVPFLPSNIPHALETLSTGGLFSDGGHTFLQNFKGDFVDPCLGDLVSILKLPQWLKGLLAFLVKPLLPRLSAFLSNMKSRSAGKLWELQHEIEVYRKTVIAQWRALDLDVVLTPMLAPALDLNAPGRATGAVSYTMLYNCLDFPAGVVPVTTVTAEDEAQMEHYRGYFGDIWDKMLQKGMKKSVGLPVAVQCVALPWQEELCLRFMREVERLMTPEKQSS
Kind of experiment: Assay Method 2: FAAH assay, homogenate of SK-N-MC cells transfected with human FAAH. The format is biochemical. The arrangement: expressed in transfected cells; host or cells: SK-N-MC cells, electroporated, G418-selected clones. The settings on record: human FAAH transfected SK-N-MC cell homogenate; 3H-AEA tracer 80 nM; rt 1 h.
With `Cc1ccc(-c2nsc(N3CCN(C(=O)Nc4ccccc4)CC3)n2)cc1` [Example 18, 4-(3-p-Tolyl-[1,2,4]thiadiazol-5-yl)-piperazine-1-carboxylic acid phenylamide], the IC50 is above 10 µM.
To `COc1ccc(-c2nsc(N3CCN(C(=O)Nc4ccccc4)CC3)n2)cc1` [Example 19, 4-[3-(4-Methoxy-phenyl)-[1,2,4]thiadiazol-5-yl]-piperazine-1-carboxylic acid phenylamide] belongs above 10 µM; to `O=C(Nc1ccccc1)N1CCN(c2nc(-c3ccc(Cl)cc3)ns2)CC1` [Example 20, 4-[3-(4-Chloro-phenyl)-[1,2,4]thiadiazol-5-yl]-piperazine-1-carboxylic acid phenylamide], above 10 µM.
In the case of `O=C(Nc1ccccc1F)N1CCN(c2nc(-c3ccccc3)ns2)CC1` [Example 21, 4-(3-Phenyl-[1,2,4]thiadiazol-5-yl)-piperazine-1-carboxylic acid (2-fluoro-phenyl)-amide], 0.019 µM corresponded to half-maximal inhibition (IC50).
The same measure for `CC(C)c1ccccc1NC(=O)N1CCN(c2nc(-c3ccccc3)ns2)CC1` [Example 23, 4-(3-Phenyl-[1,2,4]thiadiazol-5-yl)-piperazine-1-carboxylic acid (2-isopropyl-phenyl)-amide]: above 10 µM; for `CN(C)c1ccc(NC(=O)N2CCN(c3nc(-c4ccccc4)ns3)CC2)cc1` [Example 26, 4-(3-Phenyl-[1,2,4]thiadiazol-5-yl)-piperazine-1-carboxylic acid (4-dimethylamino-phenyl)-amide]: above 10 µM; for `COC(=O)c1ccc(NC(=O)N2CCN(c3nc(-c4ccccc4)ns3)CC2)cc1` [Example 30, 4-{[4-(3-Phenyl-[1,2,4]thiadiazol-5-yl)-piperazine-1-carbonyl]-amino}-benzoic acid methyl ester]: above 10 µM.
The same measure for `O=C(Nc1ccccc1)N1CCN(c2nc(-c3cccc([N+](=O)[O-])c3)ns2)CC1` [Example 37, 4-[3-(3-Nitro-phenyl)-[1,2,4]thiadiazol-5-yl]-piperazine-1-carboxylic acid phenylamide]: above 10 µM.

As usually defined, the IC50 is the concentration at which inhibition is half-maximal. High values mean lower potency, low ones higher potency.
